Legend:
[1] = Solubility of isolated stromemycin (properties); type: physicochemical; details: solvents methanol, DMSO
Source text: (§1) The stromemycin obtained has the following properties: […]

[2] = target: T1, catalytic domain of human stromelysin (MMP-3) (Homo sapiens, UniProt P08254); test: Enzymatic activity of the catalytic domain of human stromelysin (fluorogenic substrate); type: biochemical; details: inhibitor concentration giving 50% inhibition of the enzyme; pH 6.5 buffer; 15 minutes preincubation; fluorescence 328 nm (ex)/393 nm (em)
T1 construct: enzymatic activity of the catalytic domain of human stromelysin; made in house
T1 sequence (P08254 100-272 limits assumed): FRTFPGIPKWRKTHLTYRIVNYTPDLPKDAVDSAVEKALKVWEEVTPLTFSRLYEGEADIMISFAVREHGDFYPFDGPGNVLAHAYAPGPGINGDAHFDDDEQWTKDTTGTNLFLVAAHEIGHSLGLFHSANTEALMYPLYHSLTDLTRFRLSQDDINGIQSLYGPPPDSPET
Experimental: Preparation and determination of the enzymatic activity of the catalytic domain of human stromelysin
The enzyme stromelysin (MMP-3) was prepared according to Ye et al. (Biochemistry; 31 (1992) pages 11231-11235). For the measurement of the enzyme activity or of the enzyme inhibitor action, 70 μl of buffer solution and 10 μl of enzyme solution were incubated for 15 minutes with 10 μl of a 10% strength (v/v) aqueous dimethyl sulfoxide solution, which optionally contained the enzyme inhibitor. After addition of 10 μl of a 10% strength (v/v) aqueous dimethyl sulfoxide solution which contained I mmol/l of the substrate, the enzyme reaction was monitored by fluorescence spectroscopy (328 nm (ex)/393 nm (em)). The enzyme activity is shown as the extinction increase/minute. The IC50 value was determined as that inhibitor concentration which in each case led to a 50% inhibition of the enzyme.
The buffer solution contained 0.05% Brij (Sigma, Deisenhofen, Germany) and 0.1 mol/l of tris/HCl, 0.1 mol/l of NaCl, 0.01 mol/l of CaCl2 and 0.1 mol/l of piperazine-N,N′-bis[2-ethanesulfonic acid] (pH=6.5).
The enzyme solution contained 5 μg/ml of an enzyme domain prepared according to Ye et al. The substrate solution contained 1 mmol/l of the fluorogenic substrate (7-methoxycoumarin-4-yl)acetyl-Pro-Leu-Gly-Leu-3-(2′,4′-dinitrophenyl)-L-2,3-diaminopropionyl-Ala-Arg-NH2 (Bachem, Heidelberg, Germany).

[3] = Stability of isolated stromemycin in solution (properties); type: physicochemical; details: neutral medium vs strongly acidic and alkaline solution
Source text: as §1

## CCCC=CC=CCCc1cc(OC(=O)c2c(CCC=CC=CCCC)cc(O)c(C3OC(CO)C(O)C(O)C3O)c2O)cc(O)c1C(=O)O (stereo not drawn) [stromemycin]
[1]
  Solubility: soluble in methanol, dimethyl sulfoxide (DMSO)
[2]
  IC50: 115 µM
[3]
  Stability: stable in neutral medium, but unstable in strongly acidic and alkaline solution

Reference: patent publication US6337411B2, “Stromelysin inhibitors” (Aventis Pharma Deutschland GmbH, priority 1999, dated 2002)
